Results: article PMC11672750, “PfGSTF2 endows resistance to quizalofop‐p‐ethyl in Polypogon fugax by GSH conjugation” (Plant Biotechnology Journal, 2024)

Test system: PfGSTF58
Assay: absorbance at […] nm, Michaelis-Menten fit
Type: biochemical, Polypogon fugax
Conditions: GSH co-substrate; 30 °C

O=[N+]([O-])c1ccc(Cl)c([N+](=O)[O-])c1 [1-chloro-2,4-dinitrobenzene]
Km: 450 ± 90 µM
